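Where inhibition never reached the appropriate level, the endpoint shown equals the highest concentration tested. Otherwise, values were interpolated linearly from a five-concentration, 48-hour dose response in 96-well plates. TGI marks complete inhibition of growth.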
These compounds were tested on OVCAR-5 ovarian (assay: growth of human tumour cells (NCI), 48 h).

`CCCCCCc1cc2cc(-c3cn4ccsc4n3)c(=O)oc2cc1O` and `CCN(CC)CCCNC(=O)c1cc(-c2nccn2C)nc2ccccc12` cannot be ordered by TGI: over 100 µM for the first, over 100 µM for the second.

`C=CCNC(=S)N/C=C(\C#N)C(N)=O` and `CC(=O)OCCOCNC(=S)N/N=C/c1ccc([N+](=O)[O-])o1` cannot be ordered by TGI: over 100 µM for the first, over 100 µM for the second.

`CCOC(=O)c1cc(-c2ccc(OC)cc2)c([N+](=O)[O-])n1C` and `COc1ccc(C2=CC(C(C)=C(C(N)=O)C(N)=O)C=C(c3ccc(Br)cc3)C2)c(OC)c1` (stereo not given) cannot be ordered by TGI: over 10 µM for the first, over 100 µM for the second.

Compared with `O=C1c2sc(-c3ccc(Cl)cc3)cc2-n2cccc21`, `O=C1/C(=C\c2ccc(Cl)cc2Cl)Sc2scc(-c3ccc(O)c(O)c3)[n+]21` is lower in TGI: over 100 µM for the first, 46.3 µM for the second.

Going from `CC(C)C(NC(=O)Oc1ccccc1)C(=O)NC1c2c(Br)sc(Br)c2C(=O)C1O` (stereo not given) to `CSC(=O)c1sc(SC)[n+](-c2ccccc2)c1O`, the TGI rises from 15.4 µM to 49.6 µM (3.2-fold).

First: COCCOCOC(CCCCO)c1cc(C)c(O[Si](C)(C)C(C)(C)C)c(C)c1 (stereo not given)
Second: COC(=O)c1cccc(C)c1C1CN=NC12Cc1cc(C)cc(C)c1C2=O (stereo not given)
The TGI of the first is lower: 26.7 µM for the first, over 100 µM for the second.

`Cc1cc(OC(=O)Nc2cccc3ccccc23)c(C(C)C)cc1C(=S)Nc1ccccc1` and `Cc1ccc(S[C@@H](C)[C@@](O)(CF)CN(Cc2ccccc2)C(=O)C(F)(F)F)cc1` are within 1.5-fold of each other in TGI: 46 µM for the first, 34.8 µM for the second.

Going from `COc1cc2c(/C=C3/C(=O)Nc4cccc(Cl)c43)c(Cl)[nH]c2cc1C` to `COc1cc(OCCN(C)C)c2[nH]c(C(=O)N3CC(CCl)c4ccc(N)cc43)cc2c1` (stereo not given), the TGI falls from 14.8 µM to 5.63 µM (2.6-fold).

Going from `Nc1ncc2c(n1)-c1ccccc1OC2N1CCCCC1` (stereo not given) to `COc1ccc(NC(=S)c2ccc(CN3CCCCC3)s2)cc1`, the TGI falls from over 100 µM to 34.1 µM.

`COc1cc(C2C(Cl)C(=O)N2n2cnc3ccccc3c2=O)ccc1O` (stereo not given) and `COc1ccc(C2Oc3cc(OC)c(OC)cc3C2CCl)cc1OC` (stereo not given) cannot be ordered by TGI: over 100 µM for the first, over 100 µM for the second.

`C[C@]12c3c4cc(NC(=O)C(=O)NCc5ccc(-c6ccccn6)nc5)cc3Oc3cc(NC(=O)C(=O)NCc5ccc(-c6ccccn6)nc5)cc(c31)OC1C=C(NC(=O)C(=O)NCc3ccc(-c5ccccn5)nc3)C=C(O4)C12` (stereo not given in full) and `CCOC(=O)C(=[N+]=[N-])C(=O)CN1C(=O)c2ccccc2C1=O` cannot be ordered by TGI: over 100 µM for the first, over 100 µM for the second.

`O=C1c2ccccc2-n2nnnc2C2CSCN12` (stereo not given) and `O=C1/C(=C/c2ccco2)NC(=S)N1CN1CCCCC1` cannot be ordered by TGI: over 100 µM for the first, over 100 µM for the second.

`O=c1[nH]c(=O)c2c3n(cc2[nH]1)CCCCC3` and `N#Cc1cccc(-n2[nH]c(=O)ccc2=O)c1` cannot be ordered by TGI: over 100 µM for the first, over 100 µM for the second.

Going from `Nc1nc(Cl)cc(OCC2(CO)CC=CC2)n1` to `CC(C)=C[C@H]1C[C@H](C)[C@H]2CC[C@H](C)c3c2c1c(C)c1ncoc31`, the TGI falls from over 100 µM to 29.9 µM.

`CCOC(=O)CCCSCCCC(=O)CCCSCCCC(=O)OCC` gave a TGI of over 100 µM.

What follows are compounds tested on MOLT-4 leukemia (assay: growth of human tumour cells (NCI), 48 h).

`CCCCCCc1cc2cc(-c3cn4ccsc4n3)c(=O)oc2cc1O` and `CCN(CC)CCCNC(=O)c1cc(-c2nccn2C)nc2ccccc12` cannot be ordered by TGI: over 100 µM for the first, over 100 µM for the second.

Going from `COC(=O)[C@]1(C)CCC[C@@]2(C)C1CC[C@@]13C=C(C(C)C)[C@@H](CC1=O)CC23` (stereo not given in full) to `COC(=O)c1cccc(C)c1C1CN=NC12Cc1cc(C)cc(C)c1C2=O` (stereo not given), the TGI rises from 31 µM to 74.9 µM (2.4-fold).

First: Cc1nn(C(=O)Cc2ccccc2)c2c1C(c1ccccc1)SC(N)=N2 (stereo not given)
Second: Cc1cc(OC(=O)Nc2cccc3ccccc23)c(C(C)C)cc1C(=S)Nc1ccccc1
The TGI of the first is higher: over 100 µM for the first, 52.4 µM for the second.

First: C=CCNC(=S)N/C=C(\C#N)C(N)=O
Second: COc1cc(OCCN(C)C)c2[nH]c(C(=O)N3CC(CCl)c4ccc(N)cc43)cc2c1 (stereo not given)
The TGI of the first is higher: over 100 µM for the first, 0.0522 µM for the second.

`CCOC(=O)c1cc(-c2ccc(OC)cc2)c([N+](=O)[O-])n1C` and `COc1ccc(C2=CC(C(C)=C(C(N)=O)C(N)=O)C=C(c3ccc(Br)cc3)C2)c(OC)c1` (stereo not given) cannot be ordered by TGI: over 10 µM for the first, over 100 µM for the second.

`O=C1c2sc(-c3ccc(Cl)cc3)cc2-n2cccc21` and `COc1cc(C2C(Cl)C(=O)N2n2cnc3ccccc3c2=O)ccc1O` (stereo not given) cannot be ordered by TGI: over 100 µM for the first, over 100 µM for the second.

`CC(C)C(NC(=O)Oc1ccccc1)C(=O)NC1c2c(Br)sc(Br)c2C(=O)C1O` (stereo not given) and `CSC(=O)c1sc(SC)[n+](-c2ccccc2)c1O` cannot be ordered by TGI: over 25 µM for the first, 41.4 µM for the second.

Going from `COCCOCOC(CCCCO)c1cc(C)c(O[Si](C)(C)C(C)(C)C)c(C)c1` (stereo not given) to `COc1ccc(C2Oc3cc(OC)c(OC)cc3C2CCl)cc1OC` (stereo not given), the TGI rises from 13.2 µM to over 100 µM.

`CC1=NN(c2nc(N)nc(COc3ccc(N)cc3)n2)C(C)(C)C1` and `Nc1nc(Cl)cc(OCC2(CO)CC=CC2)n1` cannot be ordered by TGI: over 100 µM for the first, over 100 µM for the second.

First: COc1cc2c(/C=C3/C(=O)Nc4cccc(Cl)c43)c(Cl)[nH]c2cc1C
Second: N#Cc1cccc(-n2[nH]c(=O)ccc2=O)c1
The TGI of the first is lower: 1.26 µM for the first, over 100 µM for the second.

Compared with `Nc1ncc2c(n1)-c1ccccc1OC2N1CCCCC1` (stereo not given), `COc1ccc(NC(=S)c2ccc(CN3CCCCC3)s2)cc1` is lower in TGI: over 100 µM for the first, 61.9 µM for the second.

`C[C@]12c3c4cc(NC(=O)C(=O)NCc5ccc(-c6ccccn6)nc5)cc3Oc3cc(NC(=O)C(=O)NCc5ccc(-c6ccccn6)nc5)cc(c31)OC1C=C(NC(=O)C(=O)NCc3ccc(-c5ccccn5)nc3)C=C(O4)C12` (stereo not given in full) and `O=C1c2ccccc2-n2nnnc2C2CSCN12` (stereo not given) cannot be ordered by TGI: over 100 µM for the first, over 100 µM for the second.

`O=c1[nH]c(=O)c2c3n(cc2[nH]1)CCCCC3` and `O=C1/C(=C/c2ccco2)NC(=S)N1CN1CCCCC1` cannot be ordered by TGI: over 100 µM for the first, over 100 µM for the second.

From PubChem BioAssay (NCI)
